Read-outs that look alike come from different tables or passages of the source. Bounds are passed on as bounds.

One experiment deals with DLD1 BRCA2 (−/−) cells. The experiment in a line: DLD1 viability assay (CellTiter-Glo, 7 days), DLD1 BRCA2 (−/−). Type of experiment: cell-based. The settings on record: read-out: Viability IC50 (μM) DLD1 BRCA2 null. (Cellular ATP, detected with luciferase, serves as a proxy for viable cell number.)
Another experiment concerns DLD1 WT cells. Briefly: DLD1 viability assay (CellTiter-Glo, 7 days), DLD1 WT. The format is cell-based.
Experiment [1] addresses T1, biotinylated Avi-POLΘ[2-894] (Homo sapiens, UniProt O75417).
T1 construct: 1 nM biotinylated Avi-POLΘ[2-894]
The experiment in a line: ATPase assay (ADP-Glo): POLΘ-mediated ATP hydrolysis. The settings on record: read-out: Biochemical ATPase ADPGlo IC50. A general note: ADP-Glo first removes unused ATP, then detects ADP through luciferase.

T1 sequence (O75417 2-894 limits assumed): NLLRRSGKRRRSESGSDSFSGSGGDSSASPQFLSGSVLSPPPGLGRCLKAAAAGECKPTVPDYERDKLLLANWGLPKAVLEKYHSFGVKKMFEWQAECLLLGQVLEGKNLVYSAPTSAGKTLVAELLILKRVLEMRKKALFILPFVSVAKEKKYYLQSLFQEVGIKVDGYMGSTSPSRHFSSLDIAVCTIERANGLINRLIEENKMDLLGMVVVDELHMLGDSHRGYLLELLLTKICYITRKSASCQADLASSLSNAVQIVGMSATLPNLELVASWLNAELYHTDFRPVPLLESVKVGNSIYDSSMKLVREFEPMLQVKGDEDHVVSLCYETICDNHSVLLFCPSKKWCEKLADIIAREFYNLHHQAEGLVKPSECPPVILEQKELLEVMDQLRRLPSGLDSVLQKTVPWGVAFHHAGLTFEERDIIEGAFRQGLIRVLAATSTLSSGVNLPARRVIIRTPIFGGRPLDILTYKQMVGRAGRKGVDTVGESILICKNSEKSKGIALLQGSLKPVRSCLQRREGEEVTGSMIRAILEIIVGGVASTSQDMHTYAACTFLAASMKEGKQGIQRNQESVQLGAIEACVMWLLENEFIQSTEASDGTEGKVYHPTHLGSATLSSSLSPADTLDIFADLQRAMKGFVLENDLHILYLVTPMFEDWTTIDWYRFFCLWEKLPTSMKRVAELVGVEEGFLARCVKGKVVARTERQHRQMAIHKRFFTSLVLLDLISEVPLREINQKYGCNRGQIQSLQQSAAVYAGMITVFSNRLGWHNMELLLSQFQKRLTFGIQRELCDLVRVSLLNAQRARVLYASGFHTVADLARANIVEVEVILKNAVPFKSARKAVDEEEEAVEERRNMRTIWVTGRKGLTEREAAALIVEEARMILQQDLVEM

On to `COc1cnc(Cl)cc1-c1cc(C)ncc1C(=O)Nc1nc2ncc(N3CCC(C)(O)CC3)nc2s1` [Example 509, 2′-chloro-N-(6-(4-hydroxy-4-methylpiperidin-1-yl)thiazolo[4,5-b]pyrazin-2-yl)-5′-methoxy-6-methyl-[4,4′-bipyridine]-3-carboxamide], for which the IC50 (in general, the concentration at which inhibition is half-maximal) in the experiment with DLD1 BRCA2 (−/−) cells (Homo sapiens, DLD-1, 168 h) is 0.001 to 0.1 µM; in the experiment on DLD1 WT cells (Homo sapiens, DLD-1, 168 h), greater than 10 µM; in experiment [1], 1 to 15 nM.

As for `COc1cnc(Cl)cc1-c1cc(C)ncc1C(=O)Nc1nc2ncc([C@@H]3CC4CC3C[C@@H]4C#N)nc2s1` (single isomer, unassigned) [Example 361C, 2′-chloro-N-(6-((2R or S,5S or R)-5-cyanobicyclo[2.2.1]heptan-2-yl)thiazolo[4,5-b]pyrazin-2-yl)-5′-methoxy-6-methyl-[4,4′-bipyridine]-3-carboxamide], the IC50 with DLD1 BRCA2 (−/−) cells (Homo sapiens, DLD-1, 168 h) is 0.001 to 0.1 µM; with DLD1 WT cells (Homo sapiens, DLD-1, 168 h), greater than 10 µM; in experiment [1], 1 to 15 nM.

With `COc1cnc(Cl)cc1-c1cc(C)ncc1C(=O)Nc1nn2cc(C(=O)N[C@H]3CCOC3)nc2s1` [Example 291, (S)-2-(2′-chloro-5′-methoxy-6-methyl-[4,4′-bipyridine]-3-carboxamido)-N-(tetrahydrofuran-3-yl)imidazo[2,1-b][1,3,4]thiadiazole-6-carboxamide], the half-inhibitory concentration (IC50) with DLD1 BRCA2 (−/−) cells (Homo sapiens, DLD-1, 168 h) is greater than 2 µM; in the experiment on DLD1 WT cells (Homo sapiens, DLD-1, 168 h), greater than 10 µM; in experiment [1], 1 to 15 nM.

With `COc1cnc(Cl)cc1-c1cc(C)ncc1C(=O)Nc1nn2cc(C(=O)NC3CCC3)nc2s1` (racemic) [Example 288], the IC50 in the experiment with DLD1 BRCA2 (−/−) cells (Homo sapiens, DLD-1, 168 h) is 0.25 to 0.5 µM; in the experiment on DLD1 WT cells (Homo sapiens, DLD-1, 168 h), greater than 10 µM; in experiment [1] it was 1 to 15 nM.

Consider `COc1cnc(Cl)cc1-c1cc(C)ncc1C(=O)Nc1nc2ncc(N3CCC(OC(F)F)CC3)nc2s1` [Example 502, 2′-chloro-N-(6-(4-(difluoromethoxy)piperidin-1-yl)thiazolo[4,5-b]pyrazin-2-yl)-5′-methoxy-6-methyl-[4,4′-bipyridine]-3-carboxamide], for which the IC50 was 0.001 to 0.1 µM in the experiment on DLD1 BRCA2 (−/−) cells (Homo sapiens, DLD-1, 168 h); greater than 10 µM in the experiment on DLD1 WT cells (Homo sapiens, DLD-1, 168 h); 1 to 15 nM in experiment [1].

As for `COc1ccccc1-c1cc(C)ncc1C(=O)Nc1nc2ncc(-c3ccnc(C)c3)cc2s1` [Example 87], the half-inhibitory concentration (IC50) with DLD1 BRCA2 (−/−) cells (Homo sapiens, DLD-1, 168 h) is 0.25 to 0.5 µM; in the experiment on DLD1 WT cells (Homo sapiens, DLD-1, 168 h), greater than 10 µM; in experiment [1] it was 1 to 15 nM.

For `COc1cnc(Cl)cc1-c1cc(C)ncc1C(=O)Nc1nc2ncc(C34CC(C#N)(C3)C4)nc2s1` (single isomer, unassigned) [Example 360, 2′-chloro-N-(6-(3-cyanobicyclo[1.1.1]pentan-1-yl)thiazolo[4,5-b]pyrazin-2-yl)-5′-methoxy-6-methyl-[4,4′-bipyridine]-3-carboxamide], the concentration for half-maximal inhibition (IC50) in the experiment with DLD1 BRCA2 (−/−) cells (Homo sapiens, DLD-1, 168 h) is 0.001 to 0.1 µM; in the experiment with DLD1 WT cells (Homo sapiens, DLD-1, 168 h), greater than 10 µM; in experiment [1], 1 to 15 nM.

As for `COc1cnc(Cl)cc1-c1cc(C)ncc1C(=O)Nc1nc2ncc([C@@H]3CC4CC3C[C@H]4C#N)nc2s1` (single isomer, unassigned) [Example 361A, 2′-chloro-N-(6-((2R or S,5R or S)-5-cyanobicyclo[2.2.1]heptan-2-yl)thiazolo[4,5-b]pyrazin-2-yl)-5′-methoxy-6-methyl-[4,4′-bipyridine]-3-carboxamide], the IC50 was 0.001 to 0.1 µM with DLD1 BRCA2 (−/−) cells (Homo sapiens, DLD-1, 168 h); greater than 10 µM with DLD1 WT cells (Homo sapiens, DLD-1, 168 h); 1 to 15 nM in experiment [1].

With `COc1cnc(Cl)cc1-c1cc(C)ncc1C(=O)Nc1nn2cc(C(=O)N[C@H]3CC[C@H](O)C3)nc2s1` [Example 21], the IC50 was 0.5 to 2 µM in the experiment on DLD1 BRCA2 (−/−) cells, greater than 10 µM with DLD1 WT cells and 1 to 15 nM in experiment [1].

Regarding `COc1cnc(Cl)cc1-c1cc(C)ncc1C(=O)Nc1nc2ncc(N3CCC(OC)CC3)nc2s1` [Example 514, 2′-chloro-5′-methoxy-N-(6-(4-methoxypiperidin-1-yl)thiazolo[4,5-b]pyrazin-2-yl)-6-methyl-[4,4′-bipyridine]-3-carboxamide], the 50% inhibitory concentration (IC50) is 0.001 to 0.1 µM in the experiment on DLD1 BRCA2 (−/−) cells (Homo sapiens, DLD-1, 168 h); greater than 10 µM in the experiment on DLD1 WT cells (Homo sapiens, DLD-1, 168 h); 1 to 15 nM in experiment [1].

`COc1cnc(Cl)cc1-c1cc(C)ncc1C(=O)Nc1nc2ncc([C@@H]3CC[C@H](CO)C3)nc2s1` [Example 499, 2′-chloro-N-(6-((1R,3S)-3-(hydroxymethyl)cyclopentyl)thiazolo[4,5-b]pyrazin-2-yl)-5′-methoxy-6-methyl-[4,4′-bipyridine]-3-carboxamide]: the half-inhibitory concentration (IC50) is 0.1 to 0.25 µM in the experiment with DLD1 BRCA2 (−/−) cells (Homo sapiens, DLD-1, 168 h); greater than 10 µM with DLD1 WT cells (Homo sapiens, DLD-1, 168 h); 1 to 15 nM in experiment [1].

Take `COc1cnc(Cl)cc1-c1cc(C)ncc1C(=O)Nc1nc2ncc(C34CCC(C#N)(CC3)CC4)nc2s1` (single isomer, unassigned) [Example 359, 2′-chloro-N-(6-(4-cyanobicyclo[2.2.2]octan-1-yl)thiazolo[4,5-b]pyrazin-2-yl)-5′-methoxy-6-methyl-[4,4′-bipyridine]-3-carboxamide]: the IC50 is 0.001 to 0.1 µM in the experiment with DLD1 BRCA2 (−/−) cells (Homo sapiens, DLD-1, 168 h); greater than 10 µM in the experiment on DLD1 WT cells (Homo sapiens, DLD-1, 168 h); 1 to 15 nM in experiment [1].

For the molecule `COc1cnc(Cl)cc1-c1cc(C)ncc1C(=O)Nc1nc2ncc(C3CCOC3)cc2s1` (single isomer, unassigned) [Example 515, (R or S)-2′-chloro-5′-methoxy-6-methyl-N-(6-(tetrahydrofuran-3-yl)thiazolo[4,5-b]pyridin-2-yl)-[4,4′-bipyridine]-3-carboxamide], the IC50 was 0.1 to 0.25 µM in the experiment with DLD1 BRCA2 (−/−) cells (Homo sapiens, DLD-1, 168 h); greater than 10 µM in the experiment with DLD1 WT cells (Homo sapiens, DLD-1, 168 h); 1 to 15 nM in experiment [1].

For the molecule `COc1cnc(Cl)cc1-c1cc(C)ncc1C(=O)Nc1nn2cc(C(=O)N[C@H]3CCCC[C@@H]3O)nc2s1` (racemic) [Example 281], the IC50 in the experiment on DLD1 BRCA2 (−/−) cells (Homo sapiens, DLD-1, 168 h) is greater than 2 µM; with DLD1 WT cells (Homo sapiens, DLD-1, 168 h), greater than 10 µM; in experiment [1] it was 1 to 15 nM.

Turning to `COc1cnc(Cl)cc1-c1cc(C)ncc1C(=O)Nc1nc2ncc([C@H]3CC4CC3C[C@@H]4C#N)nc2s1` (single isomer, unassigned) [Example 361B, 2′-chloro-N-(6-((2S or R,5S or R)-5-cyanobicyclo[2.2.1]heptan-2-yl)thiazolo[4,5-b]pyrazin-2-yl)-5′-methoxy-6-methyl-[4,4′-bipyridine]-3-carboxamide], the IC50 in the experiment with DLD1 BRCA2 (−/−) cells (Homo sapiens, DLD-1, 168 h) was 0.001 to 0.1 µM; with DLD1 WT cells (Homo sapiens, DLD-1, 168 h), greater than 10 µM; in experiment [1], 1 to 15 nM.

`COc1ccccc1-c1cc(C)ncc1C(=O)Nc1nc2ccc(-c3ccccn3)cc2s1` [Example 121, 4-(2-methoxyphenyl)-6-methyl-N-(6-(pyridin-2-yl)benzo[d]thiazol-2-yl)nicotinamide]: the IC50 with DLD1 BRCA2 (−/−) cells (Homo sapiens, DLD-1, 168 h) was in the range of 0.5 to 2 µM; with DLD1 WT cells (Homo sapiens, DLD-1, 168 h), 0.001 to 2.5 µM; in experiment [1] it was 50 to 150 nM.

For `COc1cnc(Cl)cc1-c1cc(C)ncc1C(=O)Nc1nc2ncc(N3CCC(O)(C(F)F)CC3)nc2s1` [Example 504, 2′-chloro-N-(6-(4-(difluoromethyl)-4-hydroxypiperidin-1-yl)thiazolo[4,5-b]pyrazin-2-yl)-5′-methoxy-6-methyl-[4,4′-bipyridine]-3-carboxamide], the concentration for half-maximal inhibition (IC50) is 0.001 to 0.1 µM in the experiment with DLD1 BRCA2 (−/−) cells (Homo sapiens, DLD-1, 168 h); greater than 10 µM in the experiment on DLD1 WT cells (Homo sapiens, DLD-1, 168 h); 1 to 15 nM in experiment [1].

As to `COc1cnc(Cl)cc1-c1cc(C)ncc1C(=O)Nc1nn2cc(C(=O)N[C@H]3C[C@@H](O)C3)nc2s1` [Example 308], the IC50 was greater than 2 µM in the experiment on DLD1 BRCA2 (−/−) cells (Homo sapiens, DLD-1, 168 h); greater than 10 µM in the experiment with DLD1 WT cells (Homo sapiens, DLD-1, 168 h); 1 to 15 nM in experiment [1].

Consider `COc1nc2c(cc1-c1cc(C)ncc1C(=O)Nc1nc3ncc(-c4ccncc4)nc3s1)OCCN2C` [Example 507, 4-(6-methoxy-4-methyl-3,4-dihydro-2H-pyrido[3,2-b][1,4]oxazin-7-yl)-6-methyl-N-(6-(pyridin-4-yl)thiazolo[4,5-b]pyrazin-2-yl)nicotinamide], for which the IC50 in the experiment with DLD1 BRCA2 (−/−) cells (Homo sapiens, DLD-1, 168 h) was 0.1 to 0.25 µM; in the experiment on DLD1 WT cells (Homo sapiens, DLD-1, 168 h), greater than 10 µM; in experiment [1], 1 to 15 nM.

With `COc1cnc(Cl)cc1-c1cc(C)ncc1C(=O)Nc1nc2ncc(C3CC4CC3CC4C#N)nc2s1` (single isomer, unassigned) [Example 361, 2′-chloro-N-(6-(5-cyanobicyclo[2.2.1]heptan-2-yl)thiazolo[4,5-b]pyrazin-2-yl)-5′-methoxy-6-methyl-[4,4′-bipyridine]-3-carboxamide], the 50% inhibitory concentration (IC50) with DLD1 BRCA2 (−/−) cells (Homo sapiens, DLD-1, 168 h) is 0.001 to 0.1 µM; in the experiment on DLD1 WT cells (Homo sapiens, DLD-1, 168 h), greater than 10 µM; in experiment [1] it was 1 to 15 nM.

With `COc1cnc(Cl)cc1-c1cc(C)ncc1C(=O)Nc1nc2ncc([C@H]3CC4CC3C[C@H]4C#N)nc2s1` (single isomer, unassigned) [Example 361D, 2′-chloro-N-(6-((2S or R,5R or S)-5-cyanobicyclo[2.2.1]heptan-2-yl)thiazolo[4,5-b]pyrazin-2-yl)-5′-methoxy-6-methyl-[4,4′-bipyridine]-3-carboxamide], the IC50 is 0.001 to 0.1 µM in the experiment with DLD1 BRCA2 (−/−) cells (Homo sapiens, DLD-1, 168 h); greater than 10 µM in the experiment with DLD1 WT cells (Homo sapiens, DLD-1, 168 h); 1 to 15 nM in experiment [1].

Consider `COc1cnc(Cl)cc1-c1cc(C)ncc1C(=O)Nc1nc2ncc([C@H]3CC[C@H](C#N)CC3)nc2s1` [Example 454, 2′-chloro-N-(6-((1r,4r)-4-cyanocyclohexyl)thiazolo[4,5-b]pyrazin-2-yl)-5′-methoxy-6-methyl-[4,4′-bipyridine]-3-carboxamide], for which the half-inhibitory concentration (IC50) with DLD1 BRCA2 (−/−) cells (Homo sapiens, DLD-1, 168 h) was 0.001 to 0.1 µM; in the experiment with DLD1 WT cells (Homo sapiens, DLD-1, 168 h) it was greater than 10 µM; in experiment [1], 1 to 15 nM.

On to `COc1cnc(Cl)cc1-c1cc(C)ncc1C(=O)Nc1nc2ncc(N3CCC(CO)CC3)nc2s1` [Example 506, 2′-chloro-N-(6-(4-(hydroxymethyl)piperidin-1-yl)thiazolo[4,5-b]pyrazin-2-yl)-5′-methoxy-6-methyl-[4,4′-bipyridine]-3-carboxamide], for which the IC50 was 0.001 to 0.1 µM in the experiment with DLD1 BRCA2 (−/−) cells (Homo sapiens, DLD-1, 168 h); greater than 10 µM in the experiment with DLD1 WT cells (Homo sapiens, DLD-1, 168 h); 1 to 15 nM in experiment [1].

On to `COc1cnc(Cl)cc1-c1cc(C)ncc1C(=O)Nc1nc2ncc(C3CCOC3)nc2s1` (racemic) [Example 510, (Racemic)-2′-chloro-5′-methoxy-6-methyl-N-(6-(tetrahydrofuran-3-yl)thiazolo[4,5-b]pyrazin-2-yl)-[4,4′-bipyridine]-3-carboxamide], for which the IC50 in the experiment on DLD1 BRCA2 (−/−) cells (Homo sapiens, DLD-1, 168 h) is 0.1 to 0.25 µM; in the experiment on DLD1 WT cells (Homo sapiens, DLD-1, 168 h) it was greater than 10 µM; in experiment [1], 1 to 15 nM.
